Assay results as given in US20230181580A1, “TREATMENT OF PROLIFERATIVE DISEASES OF THE CNS” (AUCENTRA THERAPEUTICS PTY LTD, priority 2020, published 2023).

Experiments:
MV4-11 = test: Resazurin proliferation assay, leukaemia cell line; assay type: cell-based; conditions: Homo sapiens, 72 h, read-out: Antiproliferative activity GI50 MV4-11
Excerpt: (§1) Representative compounds from Example 1, were subjected to standard MTT (3-(4,5-dimethylthiazol-2-yl)-2,5-diphenyltetrazolium bromide) and resazurin assays on solid tumour cell lines (including GBM cell lines) and leukemia cell lines, respectively, as previously reported (Wang S et al., J Med Chem 47:1662-1675, 2004; and Diab S. et al. CheMedChem 9:962-972, 2014).

Colo205 = test: MTT proliferation assay, colorectal; assay type: cell-based; conditions: Homo sapiens, COLO 205, 72 h, read-out: Antiproliferative activity GI50 Colo205
Excerpt: as §1

T98G = test: MTT proliferation assay, glioblastoma; assay type: cell-based; conditions: Homo sapiens, 72 h, read-out: Antiproliferative activity GI50 T98G
Protocol: (§2) All three GBM cell lines used in this example, namely U87, U251 and T98G, were cultured in Eagle's Minimum Essential Medium (EMEM) with 10% fetal bovine serum in 75 cm^2 flasks at 37° C. and 5% CO2. All cell lines were confirmed to be mycoplasma-free prior to any experiment setup.
as §1

U251 = test: MTT proliferation assay, glioblastoma; assay type: cell-based; conditions: Homo sapiens, U-251, 72 h, read-out: Antiproliferative activity GI50 U251
Protocol: as §2, §1

U87 = test: MTT proliferation assay, glioblastoma; assay type: cell-based; conditions: Homo sapiens, U-87 MG, 72 h, read-out: Antiproliferative activity GI50 U87
Protocol: as §2, §1

H460 = test: MTT proliferation assay, lung; assay type: cell-based; conditions: Homo sapiens, NCI-H460, 72 h, read-out: Antiproliferative activity GI50 H460
Excerpt: as §1

A2780 = test: MTT proliferation assay, ovarian; assay type: cell-based; conditions: Homo sapiens, 72 h, read-out: Antiproliferative activity GI50 A2780
Excerpt: as §1

PANC1 = test: MTT proliferation assay, pancreas; assay type: cell-based; conditions: Homo sapiens, PANC-1, 72 h, read-out: Antiproliferative activity GI50 PANC1
Excerpt: as §1

LNCap = test: MTT proliferation assay, prostate; assay type: cell-based; conditions: Homo sapiens, 72 h, read-out: Antiproliferative activity GI50 LNCap
Excerpt: as §1

GBM U87 cells = test: Annexin V/PI apoptosis assay; assay type: cell-based; conditions: 5 μM, 48 hours, with or without 5 μM TMZ
Protocol: The ability of compound 1 to induce apoptosis in GBM cells was investigated using the annexin V-FITC apoptosis detection kit I (BD Pharmingen Inc.; San Diego, Calif., United States of America) according to the manufacturer's protocol. Cell pellets were washed twice with 1 mL cold PBS and centrifuged at 300×g for 5 mins. Following the removal of supernatants, cell pellets were stained with 100 μL 1× annexin V binding buffer, 3 μL annexin V-FITC and 3 μL propidium iodide staining solution, and incubated in the dark at room temperature for 15 mins. The percentage of apoptic cells was measured by a CytoFLEX flow cytometer.

U87 GBM cells = test: Subcutaneous U87 GBM xenograft, single agents; assay type: in vivo
Excerpt: Compound 1 and compound 2 were also investigated for in vivo antitumour activity in subcutaneous xenograft models. Briefly, U87 GBM cells were harvested and resuspended in a 1:1 mixture of serum-free media and matrigel, and 5×10^6 cells injected subcutaneously into the rear flank of 5-6-week-old CD1 nu/nu female mice. When the mean tumour volume reached 150-200 mm^3, animals were randomised to treatment groups (n=10 per group) and treated orally with vehicle (0.5% carboxymethyl cellulose in water), compound 1 or compound 2 daily for 21 days with the doses shown in FIGS. 5A and 5B. Mice were observed daily for signs of toxicity and weight loss, and tumour volume measured every other day.

CNc1nc(C)c(-c2nc(Nc3ccc(N4CCC(N(C)C)CC4)cn3)ncc2F)s1 [Compound 1, 5-(2-((5-(4-(dimethylamino)piperidin-1-yl)pyridin-2-yl)amino)-5-fluoropyrimidin-4-yl)-N,4-dimethylthiazol-2-amine]
GI50 (MV4-11): 0.11 µM | GI50 (Colo205): 2.32 µM | GI50 (T98G): 2.96 µM | GI50 (U251): 5.52 µM | GI50 (U87): 4.46 µM | GI50 (H460): 3.28 µM | GI50 (A2780): 0.07 µM | GI50 (PANC1): 1.32 µM | GI50 (LNCap): 0.62 µM | induction of apoptosis (annexin V/PI) (GBM U87 cells): capable of inducing apoptosis in GBM cells to a greater level than the control anti-cancer agent, palbociclib | T/C (U87 GBM cells; day 21, oral daily for 21 days, vs vehicle, p<0.001): 310% | tumour growth compared to vehicle treatment (U87 GBM cells; oral daily for 21 days): markedly reduced tumour growth | toxicity (U87 GBM cells; oral daily for 21 days, observed daily for signs of toxicity and weight loss): without any overt toxicity
